Laboratory results from PubChem BioAssay AID2060487 (Molecular Pharmacology Branch, DTP, NCI, 2025).
pIC50: −log10 of the molar value.

Test system: 997537-175-T-J1-PDC complex spheroid viability
Assay: Anticancer human tumor 997537-175-T-J1-PDC patient-derived colon adenocarcinoma cell line growth inhibition [GQUAD]
Conditions: for pIC50: curve of first compound; for viability, T/C: stronger effect = lower value
How it was run: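 Tumor cells were grown as complex spheroids with HUVEC endothelial cells and mesenchymal stem cells as stroma. G-quadruplex stabilizers were combined with targeted agents over half-log dilutions from near the clinical Cmax, or from 10 microM.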

[1] = second compound 0.0316 µM, first compound 0.0316 µM
[2] = second compound 0.0316 µM, first compound 0.1 µM
[3] = second compound 0.0316 µM, first compound 0.316 µM
[4] = second compound 0.0316 µM, first compound 1 µM
[5] = second compound 0.0316 µM, first compound 3.16 µM
[6] = second compound 0.0316 µM, first compound 10 µM
[7] = second compound 0.1 µM, first compound 0.0316 µM
[8] = second compound 0.1 µM, first compound 0.1 µM
[9] = second compound 0.1 µM, first compound 0.316 µM
[10] = second compound 0.1 µM, first compound 1 µM
[11] = second compound 0.1 µM, first compound 3.16 µM
[12] = second compound 0.1 µM, first compound 10 µM
[13] = second compound 0.316 µM, first compound 0.0316 µM
[14] = second compound 0.316 µM, first compound 0.1 µM
[15] = second compound 0.316 µM, first compound 0.316 µM
[16] = second compound 0.316 µM, first compound 1 µM
[17] = second compound 0.316 µM, first compound 3.16 µM
[18] = second compound 0.316 µM, first compound 10 µM
[19] = second compound 1 µM, first compound 0.0316 µM
[20] = second compound 1 µM, first compound 0.1 µM
[21] = second compound 1 µM, first compound 0.316 µM
[22] = second compound 1 µM, first compound 1 µM
[23] = second compound 1 µM, first compound 3.16 µM
[24] = second compound 1 µM, first compound 10 µM
[25] = second compound 3.16 µM, first compound 0.0316 µM
[26] = second compound 3.16 µM, first compound 0.1 µM
[27] = second compound 3.16 µM, first compound 0.316 µM
[28] = second compound 3.16 µM, first compound 1 µM
[29] = second compound 3.16 µM, first compound 3.16 µM
[30] = second compound 3.16 µM, first compound 10 µM
[31] = second compound 10 µM, first compound 0.0316 µM
[32] = second compound 10 µM, first compound 0.1 µM
[33] = second compound 10 µM, first compound 0.316 µM
[34] = second compound 10 µM, first compound 1 µM
[35] = second compound 10 µM, first compound 3.16 µM
[36] = second compound 10 µM, first compound 10 µM
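Also: spheroids exposed to the agents for 7 days.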
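For viability, T/C in this document: 100% = DMSO vehicle control viability.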

C=CC(=O)N1CCN(c2nc(=O)n(-c3c(C)ccnc3C(C)C)c3nc(-c4c(O)cccc4F)c(F)cc23)C(C)C1 (centres undefined) + Cc1cnc(CNC(=O)c2c(=O)c3ccc(N4CCCN(C)CC4)nc3n3c2sc2ccccc23)cn1
pIC50 (second compound 0.0316 µM): < 5.00
pIC50 (second compound 0.1 µM): < 5.00
pIC50 (second compound 0.316 µM): < 5.00
pIC50 (second compound 1 µM): < 5.00
pIC50 (second compound 3.16 µM): < 5.00
pIC50 (second compound 10 µM): < 5.00
viability, T/C [1]: 102%
viability, T/C [2]: 90.1%
viability, T/C [3]: 93.8%
viability, T/C [4]: 71.5%
viability, T/C [5]: 77%
viability, T/C [6]: 87.7%
viability, T/C [7]: 98.8%
viability, T/C [8]: 77.7%
viability, T/C [9]: 87.5%
viability, T/C [10]: 64.5%
viability, T/C [11]: 102%
viability, T/C [12]: 91.4%
viability, T/C [13]: 84.7%
viability, T/C [14]: 85%
viability, T/C [15]: 85.4%
viability, T/C [16]: 94.9%
viability, T/C [17]: 89.4%
viability, T/C [18]: 90.4%
viability, T/C [19]: 93.7%
viability, T/C [20]: 100%
viability, T/C [21]: 99%
viability, T/C [22]: 95%
viability, T/C [23]: 102%
viability, T/C [24]: 99.2%
viability, T/C [25]: 68.9%
viability, T/C [26]: 115%
viability, T/C [27]: 96.5%
viability, T/C [28]: 102%
viability, T/C [29]: 103%
viability, T/C [30]: 94.4%
viability, T/C [31]: 84.1%
viability, T/C [32]: 83.5%
viability, T/C [33]: 114%
viability, T/C [34]: 87.7%
viability, T/C [35]: 95.3%
viability, T/C [36]: 118%

COc1ncnc(C2CC2)c1-c1ncc2cnn(Cc3ccc(-c4nc(C(F)(F)F)cn4C(C)C)cc3)c2n1 + Cc1[nH]c2ccc(F)cc2c1-c1nc2c3cccnc3c3ncccc3c2[nH]1
pIC50 (second compound 0.0316 µM): 5.04
pIC50 (second compound 0.1 µM): < 5.00
pIC50 (second compound 0.316 µM): < 5.00
pIC50 (second compound 1 µM): 5.03
pIC50 (second compound 3.16 µM): 5.09
pIC50 (second compound 10 µM): < 5.00
viability, T/C [1]: 100%
viability, T/C [2]: 98.9%
viability, T/C [3]: 103%
viability, T/C [4]: 93.1%
viability, T/C [5]: 98.8%
viability, T/C [6]: 46.2%
viability, T/C [7]: 100%
viability, T/C [8]: 107%
viability, T/C [9]: 102%
viability, T/C [10]: 96.3%
viability, T/C [11]: 87.9%
viability, T/C [12]: 70.5%
viability, T/C [13]: 104%
viability, T/C [14]: 101%
viability, T/C [15]: 100%
viability, T/C [16]: 96.7%
viability, T/C [17]: 91.8%
viability, T/C [18]: 50.9%
viability, T/C [19]: 91.7%
viability, T/C [20]: 103%
viability, T/C [21]: 101%
viability, T/C [22]: 93%
viability, T/C [23]: 92.8%
viability, T/C [24]: 46.8%
viability, T/C [25]: 83.1%
viability, T/C [26]: 86.5%
viability, T/C [27]: 87.2%
viability, T/C [28]: 84.2%
viability, T/C [29]: 76.7%
viability, T/C [30]: 44.2%
viability, T/C [31]: 85.3%
viability, T/C [32]: 87.8%
viability, T/C [33]: 89.1%
viability, T/C [34]: 89.5%
viability, T/C [35]: 72.9%
viability, T/C [36]: 59.6%
